Earlier results, collected in patent US7011849B2, “Second release phase formulation” (Beecham Pharmaceuticals (Pte) Limited, priority 2000, dated 2006).

Settings: in vivo

- elimination half-life: about 1.3 hours
SMILES: CC1(C)S[C@@H]2[C@H](NC(=O)[C@H](N)c3ccc(O)cc3)C(=O)N2[C@H]1C(=O)O [amoxicillin]
